Drawing on patent publication US20110086759A1, “CHEMICAL COMPOUNDS” (SYNGENTA CROP PROTECTION, INC., priority 2007, published 2011), this text covers pest or weed control for nine compounds.

Holding throughout (type): in vivo
The subject of test [1] is Setaria faberi (SETFA). The test can be described thus: Post-emergence biological efficacy, glasshouse pot test. Particulars: 312 h, post-emergence, 1,000 g/ha, evaluated after 13 days (100=total damage; 0=no damage), read-out: Percentage damage caused to weed species, SETFA. The gist of the method:
(§1)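 Scored 13 days after spraying on a 0 (no damage) to 100 (total damage) scale. Treatment was a post-emergence spray at 1000 or 250 g/ha, from acetone/water 50:50 plus 0.5% Tween 20, onto 8-day-old plants in soil pots. Growth at 24/16° C, 14 h photoperiod, 65% humidity, watered twice daily.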

For test [2], the system named is Ipomea hederaceae (IPOHE). The description is as above. Particulars: Ipomoea hederacea, 312 h; post-emergence, 1,000 g/ha, evaluated after 13 days (100=total damage; 0=no damage); read-out: Percentage damage caused to weed species, IPOHE. In a few lines:
as §1

In test [3] the test system is Echinochloa crus-galli (ECHCG). Described as above. The settings on record: 312 h, post-emergence, 1,000 g/ha, evaluated after 13 days (100=total damage; 0=no damage), read-out: Percentage damage caused to weed species, ECHCG. In a few lines:
as §1

Test [4] concerns Amaranthus retoflexus (AMARE). The test is described as above. The settings on record: Amaranthus retroflexus, 312 h; post-emergence, 1,000 g/ha, evaluated after 13 days (100=total damage; 0=no damage); read-out: Percentage damage caused to weed species, AMARE. In a few lines: as §1
In test [5] the test system is Solanum nigrum (SOLNI). Described as above. The settings on record: 312 h, post-emergence, 1,000 g/ha, evaluated after 13 days (100=total damage; 0=no damage), read-out: Percentage damage caused to weed species, SOLNI. In a few lines: as §1
Test [6] deals with Alopecurus myosuroides (ALOMY). The description is as above. Particulars: 312 h, post-emergence, 1,000 g/ha, evaluated after 13 days (100=total damage; 0=no damage), read-out: Percentage damage caused to weed species, ALOMY. The gist of the method:
as §1

For test [7], the system named is Setaria faberi (SETFA). Kind of test: Pre-emergence biological efficacy, glasshouse pot test. Particulars: 312 h, pre-emergence, 1,000 g/ha, evaluated after 13 days (100=total damage; 0=no damage), read-out: Percentage damage SETFA. The gist of the method: (§2)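 Damage was rated on a 0–100 scale 13 days after treatment, with plants kept at 24/16° C, 14 h light and 65% humidity. The pre-emergence spray, at 1000 or 250 g/ha in acetone/water 50:50 with 0.5% Tween 20, was applied one day after sowing.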

Test [8] relates to Ipomea hederaceae (IPOHE). Described as above. The settings on record: Ipomoea hederacea, 312 h; pre-emergence, 1,000 g/ha, evaluated after 13 days (100=total damage; 0=no damage); read-out: Percentage damage IPOHE. The gist of the method:
as §2

The test system of test [9] is Echinochloa crus-galli (ECHCG). Described as above. Particulars: 312 h, pre-emergence, 1,000 g/ha, evaluated after 13 days (100=total damage; 0=no damage), read-out: Percentage damage ECHCG. The gist of the method:
as §2

The test system of test [10] is Amaranthus retoflexus (AMARE). Described as above. The settings on record: Amaranthus retroflexus, 312 h; pre-emergence, 1,000 g/ha, evaluated after 13 days (100=total damage; 0=no damage); read-out: Percentage damage AMARE. The gist of the method: as §2
For test [11], the system named is Solanum nigrum (SOLNI). The test is described as above. Particulars: 312 h, pre-emergence, 1,000 g/ha, evaluated after 13 days (100=total damage; 0=no damage), read-out: Percentage damage SOLNI. The gist of the method:
as §2

For test [12], the system named is Alopecurus myosuroides (ALOMY). The test is described as above. The settings on record: 312 h, pre-emergence, 1,000 g/ha, evaluated after 13 days (100=total damage; 0=no damage), read-out: Percentage damage ALOMY. The gist of the method: as §2

`O=C(O)c1nc(C2CC2)nc(NC2CC2)c1Cl` [Compound 1-1, 5-Chloro-2-cyclopropyl-4-cyclopropylamino-pyrimidine-6-carboxylic acid]: the pest or weed control at 1000 g/ha in the test on Setaria faberi (SETFA) [1] came out at 80%; in [2] it was 80%; in test [3], 40%; in [4], 100%; in the test with Solanum nigrum (SOLNI) [5] it was 90%; in test [6], 40%. Further, the pest or weed control at 1000 g/ha in the test on Setaria faberi (SETFA) [7] came out at 0%; in test [8], 90%; in [9], 20%; in test [10], 100%; in the test with Solanum nigrum (SOLNI) [11], 90%; in test [12], 20%.

For the compound `O=C(O)c1nc(C2CC2)nc(NC2CCCC2)c1Cl` [Compound 1-33, 5-Chloro-2-cyclopropyl-4-cyclopentylamino-pyrimidine-6-carboxylic acid], the pest or weed control at 1000 g/ha worked out at 80% in the test with Setaria faberi (SETFA) [1]; 70% in test [2]; 20% in test [3]; 100% in [4]; 80% with Solanum nigrum (SOLNI) [5]; 30% in test [6]. Also, the pest or weed control at 1000 g/ha with Setaria faberi (SETFA) [7] was determined as 50%; in test [8], 70%; in test [9], 30%; in test [10], 80%; with Solanum nigrum (SOLNI) [11], 80%; in [12], 30%.

For the compound `O=C(O)c1nc(C2CC2)nc(NC2CCCCC2)c1Cl` [Compound 1-35, 5-Chloro-4-cyclohexylamino-2-cyclopropyl-pyrimidine-6-carboxylic acid], the pest or weed control at 1000 g/ha with Setaria faberi (SETFA) [1] came out at 0%; in test [2], 50%; in test [3] it was 10%; in test [4], 50%; with Solanum nigrum (SOLNI) [5] it was 30%; in test [6], 10%. Besides, the pest or weed control at 1000 g/ha is 0% with Setaria faberi (SETFA) [7]; 0% in [8]; 10% in test [9]; 50% in test [10]; 20% in the test with Solanum nigrum (SOLNI) [11]; 10% in test [12].

Turning to `O=C(O)c1nc(C2CC2)nc(NCc2ccccc2)c1Cl` [Compound 1-60, 5-Chloro-2-cyclopropyl-4-phenylmethyamino pyrimidtne-6-carboxylic acid], the pest or weed control at 1000 g/ha worked out at 90% with Setaria faberi (SETFA) [1]; 100% in test [2]; 70% in test [3]; 100% in [4]; 90% in the test with Solanum nigrum (SOLNI) [5]; 50% in test [6]. Also, the pest or weed control at 1000 g/ha in the test with Setaria faberi (SETFA) [7] stood at 0%; in test [8], 100%; in test [9], 20%; in test [10], 90%; with Solanum nigrum (SOLNI) [11] it was 90%; in test [12] it was 20%.

As to `O=C(O)c1nc(C2CC2)nc(NCc2ccc(F)cc2)c1Cl` [Compound 1-66, 5-Chloro-2-cyclopropyl-4-(4-fluorophenylmethyl-amino)pyrimidine-6-carboxylic acid], the pest or weed control at 1000 g/ha in the test on Setaria faberi (SETFA) [1] worked out at 80%; in test [2], 80%; in [3] it was 50%; in test [4], 100%; with Solanum nigrum (SOLNI) [5], 90%; in test [6], 10%. Further, the pest or weed control at 1000 g/ha came to 10% in the test on Setaria faberi (SETFA) [7]; 90% in [8]; 10% in [9]; 50% in test [10]; 60% with Solanum nigrum (SOLNI) [11]; 10% in test [12].

Consider `Cc1ccc(CNc2nc(C3CC3)nc(C(=O)O)c2Cl)cc1` [Compound 1-73, 5-Chloro-2-cyclo-propyl-4-(4-methyl-phenylmethyl-amino)pyrimidine-6-carboxylic acid], for which the pest or weed control at 1000 g/ha was 50% in the test on Setaria faberi (SETFA) [1]; 80% in test [2]; 30% in test [3]; 100% in test [4]; 80% in the test with Solanum nigrum (SOLNI) [5]; 10% in [6]. The pest or weed control at 1000 g/ha came to 30% in the test with Setaria faberi (SETFA) [7]; 60% in [8]; 10% in test [9]; 70% in test [10]; 80% in the test on Solanum nigrum (SOLNI) [11]; 10% in test [12].

Turning to `O=C(O)c1nc(C2CC2)nc(NCc2c(Cl)cccc2Cl)c1Cl` [Compound 1-104, 5-Chloro-2-cyclopropyl-4-(2,6-dichlorophenyl-methylamino)-pyrimidine-6-carboxylic acid], the pest or weed control at 1000 g/ha in the test with Setaria faberi (SETFA) [1] is 0%; in test [2], 60%; in test [3], 0%; in test [4] it was 60%; in the test on Solanum nigrum (SOLNI) [5], 50%; in [6], 0%. Besides, the pest or weed control at 1000 g/ha (with Setaria faberi (SETFA) [7]; in test [8]; in test [9]; in [10]; in the test with Solanum nigrum (SOLNI) [11]; in test [12]) was 0% each time.

`COc1ccc(CNc2nc(C3CC3)nc(C(=O)O)c2Cl)c(OC)c1` [Compound 1-110, 5-Chloro-2-cyclopropyl-4-(2,4-dimethoxyphenyl-methylamino)-pyrimidine-6-carboxylic acid]: the pest or weed control at 1000 g/ha in the test on Setaria faberi (SETFA) [1] came out at 80%; in [2], 80%; in [3], 50%; in [4], 100%; in the test with Solanum nigrum (SOLNI) [5] it was 80%; in test [6], 30%. Moreover, the pest or weed control at 1000 g/ha with Setaria faberi (SETFA) [7] turned out to be 30%; in test [8] it was 90%; in [9], 20%; in test [10] it was 100%; with Solanum nigrum (SOLNI) [11], 60%; in test [12] it was 40%.

Turning to `Cc1ccc(CNc2nc(C3CC3)nc(C(=O)O)c2Cl)o1` [Compound 1-135, 5-Chloro-2-cyclopropyl-4-(5-methylfuran-2-ylmethylamino)-pyrimidine-6-carboxylic acid], the pest or weed control at 1000 g/ha came out at 80% with Setaria faberi (SETFA) [1]; 100% in [2]; 70% in test [3]; 100% in [4]; 100% with Solanum nigrum (SOLNI) [5]; 80% in test [6]. For the same compound, the pest or weed control at 1000 g/ha with Setaria faberi (SETFA) [7] was 90%; in test [8], 100%; in test [9], 90%; in test [10], 100%; in the test with Solanum nigrum (SOLNI) [11] it was 100%; in test [12], 80%.
